Numbers after ± are expanded uncertainties.
Conditions: Fluid (supercritical or subcritical phases), Brillouin light scattering technique

## CCCCCC [hexane]
509.17 K, 3500 kPa
  speed of sound: 162.1 ± 9.4 m/s
509.4 K, 4500 kPa
  speed of sound: 243.8 ± 14 m/s
509.44 K, 6500 kPa
  speed of sound: 331.1 ± 21 m/s
509.57 K, 5500 kPa
  speed of sound: 291.1 ± 18 m/s
509.67 K, 7500 kPa
  speed of sound: 361.3 ± 25 m/s
511.22 K, 5500 kPa
  speed of sound: 286.1 ± 17 m/s
511.26 K, 4500 kPa
  speed of sound: 232.7 ± 13 m/s
511.27 K, 6500 kPa
  speed of sound: 324.2 ± 21 m/s
511.34 K, 7500 kPa
  speed of sound: 355.3 ± 24 m/s
511.69 K, 3500 kPa
  speed of sound: 138.7 ± 8.8 m/s
514.25 K, 7500 kPa
  speed of sound: 347.2 ± 23 m/s
514.43 K, 6500 kPa
  speed of sound: 314.1 ± 20 m/s
514.46 K, 3500 kPa
  speed of sound: 112.5 ± 8.6 m/s
514.5 K, 4500 kPa
  speed of sound: 216.4 ± 12 m/s
514.6 K, 5500 kPa
  speed of sound: 272 ± 16 m/s
517.46 K, 7500 kPa
  speed of sound: 336.8 ± 22 m/s
517.47 K, 4500 kPa
  speed of sound: 201.9 ± 11 m/s
517.58 K, 6500 kPa
  speed of sound: 303.6 ± 18 m/s
517.72 K, 3500 kPa
  speed of sound: 95.8 ± 8.2 m/s
517.82 K, 5500 kPa
  speed of sound: 260.2 ± 15 m/s
519.87 K, 3500 kPa
  speed of sound: 100.4 ± 7.2 m/s
520.19 K, 7500 kPa
  speed of sound: 328.5 ± 21 m/s
520.36 K, 4500 kPa
  speed of sound: 183.7 ± 10 m/s
520.46 K, 6500 kPa
  speed of sound: 289 ± 17 m/s
520.54 K, 5500 kPa
  speed of sound: 245.2 ± 14 m/s
523.4 K, 4500 kPa
  speed of sound: 168.4 ± 8.9 m/s
523.63 K, 6500 kPa
  speed of sound: 278.2 ± 16 m/s
523.79 K, 3500 kPa
  speed of sound: 112.7 ± 6.2 m/s
523.89 K, 5500 kPa
  speed of sound: 229.4 ± 13 m/s
523.93 K, 7500 kPa
  speed of sound: 316.5 ± 20 m/s
527.66 K, 4500 kPa
  speed of sound: 155 ± 7.6 m/s
527.85 K, 3500 kPa
  speed of sound: 120.4 ± 5.5 m/s
528.22 K, 5500 kPa
  speed of sound: 210.9 ± 11 m/s
528.42 K, 7500 kPa
  speed of sound: 304.2 ± 18 m/s
528.58 K, 6500 kPa
  speed of sound: 263.2 ± 15 m/s
533.3 K, 4500 kPa
  speed of sound: 131.7 ± 6 m/s
533.43 K, 7500 kPa
  speed of sound: 285.3 ± 17 m/s
533.48 K, 6500 kPa
  speed of sound: 248.1 ± 14 m/s
533.62 K, 5500 kPa
  speed of sound: 194.1 ± 10 m/s
533.83 K, 3500 kPa
  speed of sound: 134.2 ± 5.7 m/s
538.14 K, 4500 kPa
  speed of sound: 125 ± 5.5 m/s
538.33 K, 5500 kPa
  speed of sound: 174.8 ± 9 m/s
538.58 K, 6500 kPa
  speed of sound: 231.5 ± 13 m/s
538.81 K, 7500 kPa
  speed of sound: 270.8 ± 16 m/s
538.84 K, 3500 kPa
  speed of sound: 140.1 ± 6.1 m/s
543 K, 4500 kPa
  speed of sound: 125.6 ± 5.4 m/s
543.14 K, 6500 kPa
  speed of sound: 219.9 ± 12 m/s
543.21 K, 5500 kPa
  speed of sound: 165.4 ± 8.1 m/s
543.52 K, 7500 kPa
  speed of sound: 259.9 ± 15 m/s
543.69 K, 3500 kPa
  speed of sound: 145.3 ± 6.3 m/s
547.89 K, 5500 kPa
  speed of sound: 158.2 ± 7.6 m/s
547.96 K, 4500 kPa
  speed of sound: 130.2 ± 5.6 m/s
548.14 K, 6500 kPa
  speed of sound: 207.4 ± 11 m/s
548.31 K, 3500 kPa
  speed of sound: 149.2 ± 6.8 m/s
548.56 K, 7500 kPa
  speed of sound: 248.3 ± 14 m/s
553.1 K, 3500 kPa
  speed of sound: 155.1 ± 7.1 m/s
553.44 K, 7500 kPa
  speed of sound: 235.1 ± 13 m/s
553.55 K, 6500 kPa
  speed of sound: 194.1 ± 9.8 m/s
553.6 K, 4500 kPa
  speed of sound: 134.9 ± 5.8 m/s
554.09 K, 5500 kPa
  speed of sound: 150.9 ± 7 m/s
558.44 K, 3500 kPa
  speed of sound: 161.5 ± 7.3 m/s
558.48 K, 4500 kPa
  speed of sound: 139.2 ± 6 m/s
558.9 K, 5500 kPa
  speed of sound: 144.8 ± 6.4 m/s
559.79 K, 6500 kPa
  speed of sound: 180.9 ± 8.9 m/s
560.33 K, 7500 kPa
  speed of sound: 222.2 ± 12 m/s
562.44 K, 4500 kPa
  speed of sound: 142.8 ± 6.1 m/s
562.56 K, 3500 kPa
  speed of sound: 164.9 ± 7.5 m/s
563.13 K, 5500 kPa
  speed of sound: 143.4 ± 6.2 m/s
563.76 K, 6500 kPa
  speed of sound: 171.7 ± 8.4 m/s
563.92 K, 7500 kPa
  speed of sound: 215.1 ± 11 m/s
567.95 K, 4500 kPa
  speed of sound: 150.6 ± 6.8 m/s
568.21 K, 3500 kPa
  speed of sound: 168.8 ± 7.9 m/s
568.4 K, 5500 kPa
  speed of sound: 146.5 ± 6.6 m/s
568.54 K, 7500 kPa
  speed of sound: 205.6 ± 11 m/s
568.59 K, 6500 kPa
  speed of sound: 169 ± 8.1 m/s
573.12 K, 7500 kPa
  speed of sound: 201.1 ± 10 m/s
573.18 K, 5500 kPa
  speed of sound: 150 ± 6.7 m/s
573.36 K, 4500 kPa
  speed of sound: 155.7 ± 7 m/s
573.51 K, 6500 kPa
  speed of sound: 165.9 ± 7.6 m/s
574.58 K, 3500 kPa
  speed of sound: 174.8 ± 8.2 m/s
578.08 K, 4500 kPa
  speed of sound: 161.3 ± 7.2 m/s
578.22 K, 5500 kPa
  speed of sound: 154 ± 6.9 m/s
578.65 K, 6500 kPa
  speed of sound: 167.9 ± 7.9 m/s
578.77 K, 3500 kPa
  speed of sound: 177.5 ± 8.3 m/s
579.07 K, 7500 kPa
  speed of sound: 191.7 ± 9.4 m/s
582.79 K, 5500 kPa
  speed of sound: 157.3 ± 7 m/s
582.93 K, 4500 kPa
  speed of sound: 164.7 ± 7.4 m/s
583.09 K, 6500 kPa
  speed of sound: 165.5 ± 7.4 m/s
583.3 K, 7500 kPa
  speed of sound: 190.5 ± 9.4 m/s
584.09 K, 3500 kPa
  speed of sound: 183 ± 8.6 m/s
587.91 K, 4500 kPa
  speed of sound: 170.5 ± 8 m/s
588.07 K, 5500 kPa
  speed of sound: 160.4 ± 7.1 m/s
588.45 K, 6500 kPa
  speed of sound: 166.4 ± 7.5 m/s
588.59 K, 3500 kPa
  speed of sound: 186.5 ± 8.7 m/s
589.01 K, 7500 kPa
  speed of sound: 188.8 ± 9.3 m/s
592.61 K, 5500 kPa
  speed of sound: 164.2 ± 7.3 m/s
592.78 K, 6500 kPa
  speed of sound: 168.5 ± 7.9 m/s
593.04 K, 4500 kPa
  speed of sound: 174.8 ± 8.1 m/s
593.24 K, 7500 kPa
  speed of sound: 187.8 ± 9.2 m/s
594.05 K, 3500 kPa
  speed of sound: 188.6 ± 9.2 m/s
597.84 K, 4500 kPa
  speed of sound: 178.5 ± 8.3 m/s
597.98 K, 5500 kPa
  speed of sound: 169.1 ± 7.9 m/s
598.14 K, 6500 kPa
  speed of sound: 168.6 ± 7.8 m/s
598.52 K, 7500 kPa
  speed of sound: 186.2 ± 8.7 m/s
598.83 K, 3500 kPa
  speed of sound: 192.2 ± 9.3 m/s
602.73 K, 4500 kPa
  speed of sound: 181.2 ± 8.4 m/s
602.85 K, 5500 kPa
  speed of sound: 172 ± 8 m/s
603.05 K, 6500 kPa
  speed of sound: 173.4 ± 8.1 m/s
603.41 K, 3500 kPa
  speed of sound: 195.9 ± 9.5 m/s
603.44 K, 7500 kPa
  speed of sound: 186 ± 8.7 m/s
608.03 K, 4500 kPa
  speed of sound: 183.5 ± 8.5 m/s
608.05 K, 5500 kPa
  speed of sound: 178 ± 8.3 m/s
608.12 K, 6500 kPa
  speed of sound: 175.1 ± 8.1 m/s
608.49 K, 7500 kPa
  speed of sound: 185.6 ± 8.6 m/s
608.96 K, 3500 kPa
  speed of sound: 198.5 ± 9.6 m/s
612.5 K, 5500 kPa
  speed of sound: 180.2 ± 8.4 m/s
612.69 K, 6500 kPa
  speed of sound: 179.7 ± 8.3 m/s
612.7 K, 4500 kPa
  speed of sound: 187 ± 9.1 m/s
613.43 K, 7500 kPa
  speed of sound: 187.8 ± 9.1 m/s
614.5 K, 3500 kPa
  speed of sound: 203.1 ± 9.9 m/s
617.91 K, 4500 kPa
  speed of sound: 193.6 ± 9.4 m/s
618.05 K, 5500 kPa
  speed of sound: 184.3 ± 8.5 m/s
618.21 K, 6500 kPa
  speed of sound: 182 ± 8.4 m/s
618.56 K, 7500 kPa
  speed of sound: 190.1 ± 9.2 m/s
618.79 K, 3500 kPa
  speed of sound: 204.3 ± 9.9 m/s
622.49 K, 6500 kPa
  speed of sound: 184.8 ± 8.6 m/s
622.59 K, 7500 kPa
  speed of sound: 191 ± 9.2 m/s
622.8 K, 5500 kPa
  speed of sound: 186.5 ± 8.6 m/s
623.06 K, 4500 kPa
  speed of sound: 195.6 ± 9.5 m/s
624.52 K, 3500 kPa
  speed of sound: 206.1 ± 10 m/s
628.11 K, 5500 kPa
  speed of sound: 190.4 ± 9.2 m/s
628.12 K, 7500 kPa
  speed of sound: 194.6 ± 9.4 m/s
628.15 K, 4500 kPa
  speed of sound: 198.3 ± 9.6 m/s
628.16 K, 6500 kPa
  speed of sound: 189 ± 9.1 m/s
629.29 K, 3500 kPa
  speed of sound: 209.3 ± 10 m/s
632.52 K, 4500 kPa
  speed of sound: 202.1 ± 9.8 m/s
632.99 K, 6500 kPa
  speed of sound: 192.3 ± 9.3 m/s
633.06 K, 7500 kPa
  speed of sound: 196.8 ± 9.5 m/s
633.07 K, 5500 kPa
  speed of sound: 193.6 ± 9.4 m/s
633.86 K, 3500 kPa
  speed of sound: 210.4 ± 11 m/s
635.27 K, 7500 kPa
  speed of sound: 198 ± 9.6 m/s
635.5 K, 6500 kPa
  speed of sound: 194.3 ± 9.4 m/s
636.04 K, 5500 kPa
  speed of sound: 195 ± 9.4 m/s
636.79 K, 4500 kPa
  speed of sound: 204.9 ± 9.9 m/s
637.99 K, 3500 kPa
  speed of sound: 211.6 ± 11 m/s
